Measurements published in ChEMBL document CHEMBL5625239, “Synthesis of 1,3,5-triphenyl-1,2,4-triazole derivatives and their neuroprotection by anti-oxidative stress and anti-inflammation and protecting BBB” (Eur J Med Chem, 2023).
Activity calls are given as the source filed them. No cut-off for these calls is given here.

Legend:
[1] = tested on: Rattus norvegicus; test: Neuroprotective activity against middle cerebral artery occlusion induced ischemia stroke Sprague-Dawley rat model assessed as cerebral infarction area at 5 mg/kg, ip measured after 24 hrs by TTC staining based imaging analysis (reference value: 20.08 +/- 5.70); type: functional
[2] = tested on: PC-12; test: Protection against SNP-induced cell damage in rat PC-12 cells assessed as inhibition of ROS accumulation by measuring reduction in green fluorescence intensity at 10 uM preincubated with compound for 2 hrs followed by SNP addition and measured after 24 hrs by laser confocal microscopic analysis; type: functional, cell-based; details: time 26.0 hrs
[3] = target: T1, Prostaglandin G/H synthase 1 (Ovis aries, UniProt P05979); test: Inhibition of ovine COX-1 using arachidonic acid as substrate preincubated with compound for 5 mins followed by substrate addition and measured after 2 mins by enzyme immunoassay
T1 sequence (P05979 whole entry): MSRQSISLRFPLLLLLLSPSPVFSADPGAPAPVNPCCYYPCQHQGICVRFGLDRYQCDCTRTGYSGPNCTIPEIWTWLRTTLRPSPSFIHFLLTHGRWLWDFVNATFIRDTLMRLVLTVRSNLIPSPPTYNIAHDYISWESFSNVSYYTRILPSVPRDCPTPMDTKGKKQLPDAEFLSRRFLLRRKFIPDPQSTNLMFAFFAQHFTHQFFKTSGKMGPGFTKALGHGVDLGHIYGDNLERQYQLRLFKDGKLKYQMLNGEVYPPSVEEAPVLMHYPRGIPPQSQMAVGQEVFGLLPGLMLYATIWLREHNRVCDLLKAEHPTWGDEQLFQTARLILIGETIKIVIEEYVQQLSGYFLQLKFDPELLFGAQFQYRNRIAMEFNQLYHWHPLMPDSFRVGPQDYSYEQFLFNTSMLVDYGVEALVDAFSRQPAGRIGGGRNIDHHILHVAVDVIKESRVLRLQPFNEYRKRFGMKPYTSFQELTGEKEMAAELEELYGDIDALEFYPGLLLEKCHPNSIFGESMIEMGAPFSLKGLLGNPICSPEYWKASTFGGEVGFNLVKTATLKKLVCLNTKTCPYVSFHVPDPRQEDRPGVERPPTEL

[4] = tested on: RAW264.7; test: Cytotoxicity against mouse RAW264.7 cells assessed as reduction in cell viability at 5 uM incubated for 24 hrs by MTT assay; type: toxicity, cell-based; details: raw264.7, 24 h
[5] = tested on: RAW264.7; test: Anti-inflammatory activity in mouse RAW264.7 cells assessed as inhibition of LPS-induced NO production preincubated with compound for 1 hrs followed by LPS stimulation and measured after 24 hrs; type: functional, cell-based; details: time 25.0 hrs
[6] = tested on: RAW264.7; test: Anti-inflammatory activity in LPS-induced mouse RAW264.7 cells assessed as reduction in PGE2 level preincubated with compound for 1 hrs followed by LPS stimulation and measured after 24 hrs by ELISA; type: functional, cell-based; details: time 25.0 hrs
[7] = tested on: PC-12; test: Protection against SNP-induced cell damage in rat PC-12 cells at 10 uM pretreated with compound for 2 hrs followed by SNP addition and measured after 24 hrs by MTT assay; type: functional, cell-based; details: time 26.0 hrs
[8] = tested on: PC-12; test: Neuroprotective activity against SNP-induced cell damage in rat PC-12 cells pretreated with compound for 2 hrs followed by SNP addition and measured after 24 hrs by MTT assay; type: functional, cell-based; details: dose 2.5-100 µM, time 26.0 hrs
[9] = tested on: Rattus norvegicus; test: Neuroprotective activity against middle cerebral artery occlusion induced ischemia stroke Sprague-Dawley rat model assessed as neurological severity score at 5 mg/kg, ip measured after 24 hrs by behavioral test (reference value: 10.50 +/- 2.72); type: functional
[10] = tested on: Rattus norvegicus; test: Neuroprotective activity against middle cerebral artery occlusion induced ischemia stroke Sprague-Dawley rat model assessed as neurological severity score at 10 mg/kg, ip measured after 24 hrs by behavioral test (reference value: 10.50 +/- 2.72); type: functional
[11] = tested on: Rattus norvegicus; test: Neuroprotective activity against middle cerebral artery occlusion induced ischemia stroke Sprague-Dawley rat model assessed as neurological severity score at 20 mg/kg, ip measured after 24 hrs by behavioral test (reference value: 10.50 +/- 2.72); type: functional
[12] = tested on: Rattus norvegicus; test: Neuroprotective activity against middle cerebral artery occlusion induced ischemia stroke Sprague-Dawley rat model assessed as cerebral infarction area at 10 mg/kg, ip measured after 24 hrs by TTC staining based imaging analysis (reference value: 20.08 +/- 5.70); type: functional
[13] = tested on: Rattus norvegicus; test: Neuroprotective activity against middle cerebral artery occlusion induced ischemia stroke Sprague-Dawley rat model assessed as cerebral infarction area at 20 mg/kg, ip measured after 24 hrs by TTC staining based imaging analysis (reference value: 20.08 +/- 5.70); type: functional
[14] = tested on: Rattus norvegicus; test: Neuroprotective activity against middle cerebral artery occlusion induced ischemia stroke Sprague-Dawley rat model assessed as reduction in MDA level in serum at 20 mg/kg, ip measured after 24 hrs by ELISA; type: functional, organism-based
[15] = tested on: Rattus norvegicus; test: Neuroprotective activity against middle cerebral artery occlusion induced ischemia stroke Sprague-Dawley rat model assessed as reduction in IL-1beta level in serum at 20 mg/kg, ip measured after 24 hrs by ELISA; type: functional, organism-based
[16] = tested on: Rattus norvegicus; test: Neuroprotective activity against middle cerebral artery occlusion induced ischemia stroke Sprague-Dawley rat model assessed as reduction in TNF-alpha level in serum at 20 mg/kg, ip measured after 24 hrs by ELISA; type: functional, organism-based
[17] = tested on: Rattus norvegicus; test: Neuroprotective activity against middle cerebral artery occlusion induced ischemia stroke Sprague-Dawley rat model assessed as increase in SOD level in serum at 20 mg/kg, ip measured after 24 hrs by ELISA; type: functional, organism-based
[18] = tested on: Rattus norvegicus; test: Neuroprotective activity against middle cerebral artery occlusion induced ischemia stroke Sprague-Dawley rat model assessed as reduction in glycocalyx degradation by measuring decrease in serum hyaluronic acid level administered intraperitoneally and measured after 24 hrs by ELISA; type: functional, organism-based; details: dose 5-20 mg/kg, route ip
[19] = tested on: Rattus norvegicus; test: Neuroprotective activity against middle cerebral artery occlusion induced ischemia stroke Sprague-Dawley rat model assessed as reduction in glycocalyx degradation by measuring decrease in serum syndecan-1 level at 5 to 20 mg/kg, ip measured after 24 hrs by ELISA; type: functional, organism-based; details: dose 5-20 mg/kg
[20] = tested on: Rattus norvegicus; test: Neuroprotective activity against middle cerebral artery occlusion induced ischemia stroke Sprague-Dawley rat model assessed as reduction in glycocalyx degradation by measuring decrease in serum heparan sulfate level at 5 to 20 mg/kg, ip measured after 24 hrs by ELISA; type: functional, organism-based; details: dose 5-20 mg/kg
[21] = tested on: Rattus norvegicus; test: Neuroprotective activity against middle cerebral artery occlusion induced ischemia stroke Sprague-Dawley rat model assessed as reduction in serum MMP-9 level administered intraperitoneally and measured after 24 hrs by ELISA; type: functional, organism-based; details: dose 5-20 mg/kg, route ip
[22] = target: Kelch-like ECH-associated protein 1 (Homo sapiens, UniProt Q14145); test: Binding affinity to CM5 chip immobilized KEAP1 Kelch domain (unknown origin) assessed as dissociation equilibrium constant by SPR analysis
Kelch-like ECH-associated protein 1, sequence (Q14145 whole entry, the tested form may be a part): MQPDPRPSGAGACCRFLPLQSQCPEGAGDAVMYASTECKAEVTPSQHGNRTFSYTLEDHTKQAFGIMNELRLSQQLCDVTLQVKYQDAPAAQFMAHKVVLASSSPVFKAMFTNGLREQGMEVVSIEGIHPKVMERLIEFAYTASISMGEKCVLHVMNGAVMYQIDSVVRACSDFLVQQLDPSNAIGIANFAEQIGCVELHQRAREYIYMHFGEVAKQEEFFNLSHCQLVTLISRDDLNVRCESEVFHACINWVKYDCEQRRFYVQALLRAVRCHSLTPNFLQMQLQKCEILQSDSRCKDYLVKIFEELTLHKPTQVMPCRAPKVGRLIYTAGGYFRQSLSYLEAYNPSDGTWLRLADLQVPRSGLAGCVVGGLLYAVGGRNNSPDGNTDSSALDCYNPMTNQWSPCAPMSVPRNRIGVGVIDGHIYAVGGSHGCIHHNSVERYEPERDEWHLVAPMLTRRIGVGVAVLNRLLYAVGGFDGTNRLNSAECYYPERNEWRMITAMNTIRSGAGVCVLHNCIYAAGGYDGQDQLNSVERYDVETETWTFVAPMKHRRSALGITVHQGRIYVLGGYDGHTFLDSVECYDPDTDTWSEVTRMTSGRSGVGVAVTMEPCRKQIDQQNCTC

[23] = tested on: RAW264.7; test: Anti-inflammatory activity in LPS-induced mouse RAW264.7 cells assessed as decrease in COX-2 expression preincubated with compound for 1 hrs followed by LPS stimulation and measured after 24 hrs by Western blot analysis; type: functional, cell-based; details: dose 1.25-5 µM, time 25.0 hrs
[24] = tested on: RAW264.7; test: Anti-inflammatory activity in LPS-induced mouse RAW264.7 cells assessed as decrease in iNOS expression preincubated with compound for 1 hrs followed by LPS stimulation and measured after 24 hrs by Western blot analysis; type: functional, cell-based; details: dose 1.25-5 µM, time 25.0 hrs
[25] = tested on: PC-12; test: Protection against SNP-induced cell damage in rat PC-12 cells assessed as reduction in apoptosis by measuring decrease in bright-blue nuclei at 10 uM preincubated with compound for 2 hrs followed by SNP addition and measured after 24 hrs by confocal laser microscopic analysis; type: functional, cell-based; details: time 26.0 hrs
[26] = tested on: PC-12; test: Protection against SNP-induced cell damage in rat PC-12 cells assessed as reduction in apoptosis by measuring decrease in cell count at 10 uM preincubated with compound for 2 hrs followed by SNP addition and measured after 24 hrs by confocal laser microscopic analysis; type: functional, cell-based; details: time 26.0 hrs
[27] = tested on: PC-12; test: Protection against SNP-induced cell damage in rat PC-12 cells assessed as reduction in apoptosis by measuring normal nuclear staining at 10 uM preincubated with compound for 2 hrs followed by SNP addition and measured after 24 hrs by confocal laser microscopic analysis; type: functional, cell-based; details: time 26.0 hrs
[28] = target: Voltage-gated inwardly rectifying potassium channel KCNH2 (Homo sapiens, UniProt Q12809); test: Inhibition of hERG in HEK293 cells by whole-cell patch clamp electrophysiological recording; type: toxicity, cell-based
Voltage-gated inwardly rectifying potassium channel KCNH2, sequence (Q12809 whole entry): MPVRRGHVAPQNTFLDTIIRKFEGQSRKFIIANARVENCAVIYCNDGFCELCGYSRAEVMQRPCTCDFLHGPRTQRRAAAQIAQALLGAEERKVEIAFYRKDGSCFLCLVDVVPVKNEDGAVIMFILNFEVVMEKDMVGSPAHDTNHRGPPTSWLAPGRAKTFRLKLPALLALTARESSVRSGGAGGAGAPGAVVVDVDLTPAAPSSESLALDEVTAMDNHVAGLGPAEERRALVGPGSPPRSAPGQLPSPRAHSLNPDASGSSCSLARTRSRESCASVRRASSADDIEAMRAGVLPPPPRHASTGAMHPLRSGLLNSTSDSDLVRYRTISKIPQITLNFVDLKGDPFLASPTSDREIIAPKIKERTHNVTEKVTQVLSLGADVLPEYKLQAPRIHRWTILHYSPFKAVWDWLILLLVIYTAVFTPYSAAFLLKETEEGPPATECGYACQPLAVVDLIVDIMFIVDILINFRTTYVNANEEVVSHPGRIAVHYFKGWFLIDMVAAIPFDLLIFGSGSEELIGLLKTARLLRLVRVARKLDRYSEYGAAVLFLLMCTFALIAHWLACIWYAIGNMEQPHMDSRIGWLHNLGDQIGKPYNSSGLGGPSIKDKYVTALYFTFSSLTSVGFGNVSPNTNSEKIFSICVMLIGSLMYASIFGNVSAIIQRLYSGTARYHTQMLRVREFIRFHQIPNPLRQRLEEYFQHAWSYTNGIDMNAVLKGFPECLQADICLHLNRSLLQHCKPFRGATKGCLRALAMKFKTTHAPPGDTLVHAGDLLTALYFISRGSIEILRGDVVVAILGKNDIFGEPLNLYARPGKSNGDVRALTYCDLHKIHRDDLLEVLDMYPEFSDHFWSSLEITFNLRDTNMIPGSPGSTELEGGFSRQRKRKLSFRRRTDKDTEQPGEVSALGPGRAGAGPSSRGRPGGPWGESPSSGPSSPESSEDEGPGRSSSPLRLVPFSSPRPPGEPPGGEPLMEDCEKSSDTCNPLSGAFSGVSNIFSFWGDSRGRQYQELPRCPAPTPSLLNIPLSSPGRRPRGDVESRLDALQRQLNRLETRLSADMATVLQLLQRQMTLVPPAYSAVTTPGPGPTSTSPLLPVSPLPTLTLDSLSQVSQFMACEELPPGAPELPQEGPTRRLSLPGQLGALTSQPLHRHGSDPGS

[29] = Acute toxicity in mouse assessed as mortality at 1000 mg/kg, ip; type: organism-based; details: in vivo
[30] = Acute toxicity in mouse assessed as effect on behavior at 1000 mg/kg, ip; type: organism-based; details: in vivo
[31] = Acute toxicity in ip dosed mouse assessed as lethal dose; type: organism-based; details: in vivo

In the case of `NS(=O)(=O)c1ccc(-n2nc(-c3ccc(C(F)(F)F)cc3O)nc2-c2ccccc2O)cc1`, the Activity [1] is reported as 18.52, the Activity [2] is reported as “Active” and the IC50 [3] is reported as 86.5 µM. For the same compound, the Activity [4] was “Non-Toxic”, the Activity [5] was “Active” and the Activity [6] was “Active”. The Activity [7] was “Active”, the Activity [8] was “Dose-Dependent Effect” and the Activity [9] was 9.2. The Activity [10] was 9.25, the Activity [11] was 7.4 and the Activity [12] was 17.43. The Activity [13] was 15.61, the Activity [14] was “Active” and the Activity [15] was “Active”. For the same compound, the Activity [16] was “Active”, the Activity [17] was “Active” and the Activity [18] was “Dose-Dependent Effect”. The Activity [19] was “Active”, the Activity [20] was “Active” and the Activity [21] was “Dose-Dependent Effect”. For the same compound, the Kd [22] was 16.5 µM, the Activity [23] was “Dose-Dependent Effect” and the Activity [24] was “Dose-Dependent Effect”. The Activity [25] was “Active”, the Activity [26] was “Active” and the Activity [27] was “Active”. The IC50 [28] was greater than 30 µM, the Activity [29] was “Non-Toxic” and the Activity [30] was “Non-Toxic”. For the same compound, the LD50 [31] was greater than 1000 mg/kg.
